Data published in article PMC7294232, “Synthesis and biological evaluation of novel quinoline-piperidine scaffolds as antiplasmodium agents” (European Journal of Medicinal Chemistry, 2020).
Like-named read-outs stand apart in the source and are kept apart here.

Columns and labels:
[1] = test system: CQ-sensitive strain of P. falciparum (NF54); assay: in vitro antiplasmodium assay (parasite lactate dehydrogenase), CQ-sensitive strain; type: cell-based, Plasmodium falciparum; details: for IC50: Plasmodium falciparum
[2] = test system: CQ-resistant strain of P. falciparum (K1); assay: in vitro antiplasmodium assay (parasite lactate dehydrogenase), CQ-resistant strain; type: cell-based, Plasmodium falciparum; details: for IC50: Plasmodium falciparum; for activity lowered by omitting the 7-chlorine atom: CQ-resistant strain, versus 7-chloro analogues
[3] = test system: Chinese hamster ovarian (CHO) cells; assay: in vitro cytotoxicity, MTT-assay; type: cell-based; details: for IC50: Cricetulus griseus, CHO; for SI (selectivity index): IC50 CHO/IC50 NF54
Experimental: An antiplasmodium assay was performed on this set of 18 novel quinoline-piperidine analogues to establish their potential as antimalarial agents. […] All compounds were screened for in vitro antiplasmodium activity against a CQ-sensitive strain of P. falciparum (NF54). Subsequently, compounds showing promising antiplasmodium activity were also tested against a CQ-resistant strain of P. falciparum (K1) and analysed for in vitro cytotoxicity against a mammalian cell line, Chinese hamster ovarian (CHO) cells, using the 3-(4,5-dimethylthiazol-2-yl)-2,5-diphenyltetrazoliumbromide (MTT)-assay. Continuous in vitro cultures of asexual erythrocyte stages of P. falciparum were maintained using a modified method of Trager and Jensen, and quantitative assessment of antiplasmodium activity in vitro was determined via the parasite lactate dehydrogenase assay using a modified method described by Makler. The test samples were tested in triplicate on one occasion. The MTT-assay was used as a colorimetric assay for cellular growth and survival, and compares well with other available assays. The tetrazolium salt MTT was used to measure all growth and chemosensitivity. Again, samples were tested in triplicate on one occasion. Chloroquine was used as reference compound in both antiplasmodium screenings, while emetine was used as known antiprotozoal agent in the MTT-assay.
The same stock solutions prepared for antiplasmodium testing were used for cytotoxicity testing. Test compounds were stored at −20 °C until use. Dilutions were prepared on the day of the experiment. Emetine was used as the reference drug in all experiments. The initial concentration of emetine was 100 μg/ml, which was serially diluted in complete medium with 10-fold dilutions to give 6 concentrations, the lowest being 0.001 μg/ml. The same dilution technique was applied to all the test samples. The highest concentration of solvent to which the cells were exposed to had no measurable effect on the cell viability (data not shown). The 50% inhibitory concentration (IC50) values were obtained from full dose-response curves, using a non-linear dose-response curve fitting analysis via GraphPad Prism v.4 software.

[4] = CQ-sensitive P. falciparum NF54, mean ± SD, read-out: NF54 IC50
[5] = CQ-resistant P. falciparum K1, mean ± SD, read-out: K1 IC50
[6] = cytotoxicity, CHO cells, MTT, mean ± SD

SMILES	IC50 [1, 4] [nM]	IC50 [2, 5] [nM]	IC50 [3, 6] [nM]	SI (selectivity index) [3]	further results
C=CCN1CCC(CNCc2ccc3cccc(O)c3n2)C(C)(C)C1 (centres unmarked) [Compound 17e, 2-{N-[(1-Allyl-3,3-dimethylpiperidin-4-yl)methyl]aminomethyl}quinolin-8-ol]	2890 ± 1060	–	–	–	–
c1ccc(C23CCN(C2)C(CNCc2ccnc4ccccc24)C3)cc1 (centres unmarked) [Compound 12a, N-[(4-Phenyl-1-azabicyclo[2.2.1]heptan-2-yl)methyl]-1-(quinolin-4-yl)methanamine]	6770 ± 250	–	–	–	–
COc1ccc(CNCC2CC3(c4ccccc4)CCN2C3)cc1 (centres unmarked) [Compound 7, 2-[N-(4-methoxybenzyl)aminomethyl]-4-phenyl-1-azabicyclo[2.2.1]heptane]	1550 ± 130	–	–	–	antiplasmodium activity (in words) ([1]; in vitro, strain not given): moderate antiplasmodium activity
Oc1cccc2ccc(CNCC3CC4(c5ccccc5)CCN3C4)nc12 (centres unmarked) [Compound 12d, 2-{N-[(4-Phenyl-1-azabicyclo[2.2.1]heptan-2-yl)methyl]aminomethyl}quinolin-8-ol]	720 ± 30	4640 ± 130	103000 ± 19700	142	–
c1ccc(C23CCN(C2)C(CNCc2ccc4ccccc4n2)C3)cc1 (centres unmarked) [Compound 12c, N-[(4-Phenyl-1-azabicyclo[2.2.1]heptan-2-yl)methyl]-1-(quinolin-2-yl)methanamine]	1270 ± 40	–	–	–	–
C=CCN1CCC(CNCc2ccc3ccccc3n2)C(C)(C)C1 (centres unmarked) [Compound 17d, N-[(1-Allyl-3,3-dimethylpiperidin-4-yl)methyl]-1-(quinolin-2-yl)methanamine]	3660 ± 820	–	–	–	–
C=CCN1C[C@@H](OCc2ccccc2)[C@@H](CNCc2ccnc3ccccc23)C(C)(C)C1 (relative stereo) [Compound 17a, N-[(cis-1-Allyl-5-benzyloxy-3,3-dimethylpiperidin-4-yl)methyl]-1-(quinolin-4-yl)methanamine]	2370 ± 1050	3660 ± 430	139000 ± 14100	59	–
C=CCN1C[C@@H](OC)[C@@H](CNCc2ccnc3ccccc23)C(C)(C)C1 (relative stereo) [Compound 17h, N-[(cis-1-Allyl-5-methoxy-3,3-dimethylpiperidin-4-yl)methyl]-1-(quinolin-4-yl)methanamine]	18000 ± 2440	–	–	–	–
C=CCN1CCC(CNc2ccnc3cc(Cl)ccc23)C(C)(C)C1 (centres unmarked) [Compound 16b, N-[(1-Allyl-3,3-dimethylpiperidin-4-yl)methyl]-7-chloroquinolin-4-amine]	15 ± 1.7	25 ± 8.9	29900 ± 1200	1991	–
CC[C@H]1CN2CCc3cc(OC)c(OC)cc3[C@@H]2C[C@@H]1C[C@H]1NCCc2cc(OC)c(OC)cc21 [Emetine, reference compound]	–	–	–	–	IC50 ([3]; reference value for compound subset c): 40 ± 10 nM; IC50 ([3]; reference value for compound subset d): 140 nM; IC50 ([3]; reference value for compound subset e): 30 nM
Clc1nc2ccccc2cc1CNCC1CC2(c3ccccc3)CCN1C2 (centres unmarked) [Compound 12e, N-[(4-Phenyl-1-azabicyclo[2.2.1]heptan-2-yl)methyl]-1-(2-chloroquinolin-3-yl)methanamine]	3600 ± 310	–	–	–	–
c1ccc(C23CCN(C2)C(CNCc2cnc4ccccc4c2)C3)cc1 (centres unmarked) [Compound 12b, N-[(4-Phenyl-1-azabicyclo[2.2.1]heptan-2-yl)methyl]-1-(quinolin-3-yl)methanamine]	4070 ± 740	–	–	–	–
C=CCN1C[C@@H](OCc2ccccc2)[C@@H](CNCc2cc3ccccc3nc2Cl)C(C)(C)C1 (relative stereo) [Compound 17f, N-[(cis-1-Allyl-5-benzyloxy-3,3-dimethylpiperidin-4-yl)methyl]-1-(2-chloroquinolin-3-yl)methanamine]	1280 ± 330	1950 ± 78	199000 ± 23300	156	–
C=CCN1CCC(CNCc2ccnc3ccccc23)C(C)(C)C1 (centres unmarked) [Compound 17b, N-[(1-Allyl-3,3-dimethylpiperidin-4-yl)methyl]-1-(quinolin-4-yl)methanamine]	4940 ± 1180	–	–	–	–
C=CCN1C[C@@H](OCc2ccccc2)[C@@H](CNc2ccnc3cc(Cl)ccc23)C(C)(C)C1 (relative stereo) [Compound 16a, N-[(cis-1-Allyl-5-benzyloxy-3,3-dimethylpiperidin-4-yl)methyl]-7-chloroquinolin-4-amine]	12 ± 1	26 ± 5.7	122000 ± 41400	10,149	–
c1ccc(C23CCN(C2)C(CNc2ccnc4ccccc24)C3)cc1 (centres unmarked) [Compound 11b, N-[(4-Phenyl-1-azabicyclo[2.2.1]heptan-2-yl)methyl]quinolin-4-amine]	45 ± 7	69 ± 11.3	11200 ± 2100	250	activity lowered by omitting the 7-chlorine atom [2]: 2 to 3 times
CCN(CC)CCCC(C)Nc1ccnc2cc(Cl)ccc12 (centres unmarked) [Chloroquine, reference compound]	–	–	–	–	IC50 ([1]; NF54, read-out: IC50 (NF54), footnote reference value, subset c): 11.3 nM; IC50 ([1]; NF54, read-out: IC50 (NF54), footnote reference value, subset d): 9.5 nM; IC50 ([1]; NF54, read-out: IC50 (NF54), footnote reference value, subset e): 20 nM; IC50 ([1]; NF54, read-out: NF54 IC50, reference value for compound subset c): 11 ± 1 nM; IC50 ([1]; NF54, read-out: NF54 IC50, reference value for compound subset d): 10 nM; IC50 ([1]; NF54, read-out: NF54 IC50, reference value for compound subset e): 20 nM; IC50 ([2]; K1, read-out: IC50 (K1)): 166 nM
C=CCN1CCC(CNCc2cc3ccccc3nc2Cl)C(C)(C)C1 (centres unmarked) [Compound 17g, N-[(1-Allyl-3,3-dimethylpiperidin-4-yl)methyl]-1-(2-chloroquinolin-3-yl)methanamine]	7750 ± 1440	–	–	–	–
C=CCN1C[C@@H](OCc2ccccc2)[C@@H](CNCc2ccc3ccccc3n2)C(C)(C)C1 (relative stereo) [Compound 17c, N-[(cis-1-Allyl-5-benzyloxy-3,3-dimethylpiperidin-4-yl)methyl]-1-(quinolin-2-yl)methanamine]	1570 ± 170	2820 ± 140	211000 ± 31400	134	–
Clc1ccc2c(NCC3CC4(c5ccccc5)CCN3C4)ccnc2c1 (centres unmarked) [Compound 11a, 7-Chloro-N-[(4-phenyl-1-azabicyclo[2.2.1]heptan-2-yl)methyl]quinolin-4-amine]	21 ± 5	33 ± 6.2	26000 ± 2900	1266	–
C=CCN1CCC(CNc2ccnc3ccccc23)C(C)(C)C1 (centres unmarked) [Compound 16c, N-[(1-Allyl-3,3-dimethylpiperidin-4-yl)methyl]quinolin-4-amine]	236 ± 32	68.5 ± 7.8	27000 ± 3200	114	activity lowered by omitting the 7-chlorine atom [2]: 2 to 3 times
